Here are results for one compound from patent US7718688B2, “Nitrobenzindoles and their use in cancer therapy” (Auckland Uniservices Limited, priority 2004, dated 2010).

Data set [1] concerns HT29: human colon cancer cell line. Briefly: Proliferation IC50 assay, oxic/hypoxic, HT29. Format: cell-based. The conditions noted are these: Table 3.
The next data set concerns HT29 clonogens. Briefly: Clonogenic assay (C10), oxic/hypoxic, HT29. Format: cell-based, human.
A short description of data set [2]: Plasma pharmacokinetics after intravenous 36 in mice (LC/MS/MS). The conditions noted are these: CD-1 (nu/+ heterozygotes), mouse. Format: in vivo, CD-1 mice (nu/+ heterozygotes).
Method: The compounds were assayed in plasma, following precipitation of proteins with methanol, using an LC/MS/MS (triple quadrupole mass spectrometer).
In data set [3] the test system is SKOV3: human ovarian carcinoma cell line. As to the kind of experiment: Proliferation IC50 assay, oxic/hypoxic, SKOV3. The format is cell-based. The conditions noted are these: Table 3.
A short description of data set [4]: One-electron reduction potential E(1) by pulse radiolysis. Format: physicochemical. The settings on record: determined by pulse radiolysis.

Turning to `CN(C)CCOc1ccc2[nH]c(C(=O)N3CC(CCl)c4c3cc([N+](=O)[O-])c3cc(S(=O)(=O)NCCO)ccc43)cc2c1` (centres unmarked) [Compound 35, 1-(Chloromethyl)-3-{5-[2-(dimethylamino)ethoxy]indol-2-carbonyl}-N-(2-hydroxyethyl)-5-nitro-1,2-dihydro-3H-benzo[e]indole-7-sulfonamide], the melting point was 205 to 210 °C. The same compound registered a concentration for half-maximal inhibition (IC50) in data set [1] (Homo sapiens, HT-29, 4 h exposure under aerobic conditions) of 5.5 µM. The “HCR (hypoxic cytotoxicity ratio) HT29” value in data set [1] (IC50(aerobic)/IC10(hypoxic)) is 90. Moreover, the “Clonogenic HCR HT29” value in the data set on HT29 clonogens (C10(aerobic)/C10(hypoxic)) amounted to 74.4. The “Clonogenic C10 HT29 Oxic” value in the data set on HT29 clonogens (concentration to reduce HT29 clonogens to 10% of controls, 4 hr exposure under aerobic conditions) stood at 115 µM. Further, the “AUC for 90% kill of HT29 cells under hypoxic conditions” value in the data set on HT29 clonogens (estimated from the clonogenic assay data in Table 3) is 371 µM·min. Also, in data set [2] (intravenous, 42.1 μmol/kg, 35 derived from 36, plasma, mice), the exposure (AUC) is about 11.7 µM·h. In data set [2] (iv, 42.1 umol/kg, plasma, CD-1 mice, 36 i.v. 42.1 μmol/kg, 35 as metabolite of 36, mean), the area under the curve (AUC) was 11.7 µM·h. Besides, the clearance in data set [2] (iv, 42.1 umol/kg, plasma, CD-1 mice, 36 i.v. 42.1 μmol/kg, 35 as metabolite of 36, mean, read-out: Cl (clearance)) worked out at 61 mL/min/kg. In data set [2] (iv, 42.1 umol/kg, plasma, CD-1 mice, 36 i.v. 42.1 μmol/kg, 35 as metabolite of 36, mean, read-out: T1/2 (terminal half-life)), the half-life worked out at 43 min. Moreover, the volume of distribution (Vd) in data set [2] (iv, 42.1 umol/kg, plasma, CD-1 mice, 36 i.v. 42.1 μmol/kg, 35 as metabolite of 36, mean, read-out: Vd (volume of distribution based on the terminal phase)) was 3.8 L/kg. Besides, 9.2 µM corresponded to half-maximal inhibition in data set [3] (Homo sapiens, SK-OV-3, 4 h exposure under aerobic conditions) (IC50). Also, the “HCR (hypoxic cytotoxicity ratio) SKOV3” value in data set [3] (IC50(aerobic)/IC10(hypoxic)) is 250. In addition, the “E(1): one-electron reduction potential” value in data set [4] is −392 ± 7 mV.

One may read the IC50 as the concentration at which inhibition is half-maximal. A higher IC50 goes with a need for much substance. One may read the AUC as the area under the concentration-time curve, a measure of exposure. One may read the clearance as the volume of plasma or blood freed of the substance per unit of time. As usually defined, the Vd is a proportionality between amount in the body and measured concentration, not a real space. Broadly, the melting point is the temperature, or range, at which the solid turns liquid.
